From patent US8138188B2, “Melanocortin type 4 receptor agonist piperidinoylpyrrolidines” (Pfizer Inc., priority 2006, dated 2012)

Tests used:
[1] = In vitro metabolism rate determination, rat liver microsome (RLM) assay; format: in vitro ADME; conditions: rat liver microsomes, substrate 1 μM; read-out: RLM (intrinsic clearance)
From the text: In vitro Metabolism Rate Determination (Human Liver Microsome (HLM); Rat Liver Microsome (RLM) Assay)
Many drugs are metabolised by the cytochrome P450 mono-oxygenase system. This enzyme is found in high concentrations in the liver and is bound to the endoplasmic reticulum of the hepatocyte. The enzyme system can be obtained in semi-purified state by the preparation of the hepatic microsomal fractions. Determining a compound's in vitro half-life in such a system provides a useful indicator of metabolic stability.
Methodology For In Vitro Rate Determination Using Hepatic & Supermix Microsomes
The method outlined below is for a total incubation volume of 1.5 ml.
1. The following mixture is prepared in a test tube:
2. Defrost microsomes at room temperature and add sufficient microsomes to give a final concentration of 0.5 nmol cytochrome P450/ml of incubation e.g. for a 1.5 ml incubation, the volume of microsomes to be added is:
[formula] 3. Add sufficient MilliQ water to give a total incubation volume of 1.425 ml. 4. Remove 237.5 μl of incubation mix and place in test tube for PNA positive control. Add 2.5 μl of PNA solution, whirlimix, and put tube into a rack in the thermostatically controlled shaking water bath 5. Remove 100 μl for no substrate control and dispense in test tube. Place test tube in a rack in the thermostatically controlled shaking water bath. 6. Add substrate to the incubation. The substrate should be at an initial concentration of 1 μM. The volume of substrate required in the remaining 1.162.5 ml incubation is calculated as follows:
[formula] • N.B. The volume of organic solvent added should not exceed 0.1% of the total incubation volume. 7. Remove 100 μl of incubation mix into test tube for no cofactor control. Whirlimix and put into a rack in the thermostatically controlled shaking water bath. 8. Pre-incubate the tube containing the incubation mix, also positive control and no cofactor tubes in the thermostatically controlled shaking water bath set at 37° C. for approx 5 min. 9. Add NADP to initiate reaction (75 μl to each 1.162.5 ml incubation mix, 12.5 μl to positive control tube and 5 μl to no substrate tube) and take first time point immediately. The PNA positive control, no cofactor control and no substrate tubes are incubated for the total incubation time. 10. Remove 100 μl aliquots up to 9 different sampling points from 0 to 60 min (usually 0, 3, 5, 10, 15, 20, 30, 45 & 60 min) and terminate reaction. Longer incubation times can be used, but, after 120 min the microsomes deteriorate. The reaction may be terminated by addition of organic solvent, acid or base. At the end of the incubation process the no cofactor and no substrate controls in a similar manner i.e. terminate with the same reagent. 11. PNA Positive Control Procedure: • After the final sample has been taken, remove the positive control and add 1 ml 20% TCA to this tube. Also prepare a tube containing 250 μl of a PNP standard at 50 μM, and add 1 ml 20% TCA. Whirlimix both tubes and leave for approx 5 min to allow the protein to precipitate. • Centrifuge both tubes for approx 5 min in an instrument set at 3500 rpm. Remove 1 ml of supernatant and place into clean test tubes, discard the remainder. • Add 1 ml 10M NaOH to the supernatant, whirlimix, and leave to stand for approx min. Blank spectrophotometer with distilled water at 400 nm then measure absorbance of the PNP standard against distilled water. The microsomal 4-nitroanisole O-demethylase activity is calculated as follows: Calculation of Results
[formula] • The activity value from the incubation MUST be equal to or greater than 85% of the mean value of the batch used for the incubation to be valid. If this criteria is not met, then the incubation must be repeated. 11. Analyse samples (including no cofactor and no substrate control) by a specific assay for the substrate to determine the disappearance kinetics. Analysis Of Data […]

[2] = biological target: MC4 receptor (Homo sapiens, UniProt P32245); assay: MC4 functional agonist potency (EC50), assay protocol E of US2005/0176772 / WO 2005/077935; format: cell-based; conditions: functional potency at the MC4 receptor
Sequence of MC4 receptor (P32245 whole entry): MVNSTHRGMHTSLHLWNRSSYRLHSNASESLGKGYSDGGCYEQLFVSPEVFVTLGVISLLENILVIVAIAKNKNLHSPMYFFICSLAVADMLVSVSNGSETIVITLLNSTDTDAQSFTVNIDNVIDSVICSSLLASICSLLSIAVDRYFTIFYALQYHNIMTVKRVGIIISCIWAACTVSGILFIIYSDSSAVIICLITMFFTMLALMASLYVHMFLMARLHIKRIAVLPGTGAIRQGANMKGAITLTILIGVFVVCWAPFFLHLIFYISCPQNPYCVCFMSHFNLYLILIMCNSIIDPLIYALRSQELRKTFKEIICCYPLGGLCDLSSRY
Method: The compounds of formula (I) of the present invention have utility as MCR4 agonists in the treatment of various disease states.
MC5 and MC4 EC50 activity was determined as described by assay protocols D and E, respectively, in US2005/0176772 (pages 28-30).

[3] = biological target: T1, human MC3 receptor (Homo sapiens, UniProt P41968); assay: In vitro agonist potency (EC50) against melanocortin receptor type 3, cAMP in recombinant cell line; format: cell-based; conditions: cell line stably transfected with human MC3, 1 hour at 37° C.
T1 construct: stably transfected with full length cDNA encoding human MC1 or MC3 receptors; expressed in transfected cells; host or cells: Chinese hamster ovary cell line (MC3; 'respectively')
T1 sequence (P41968 whole entry): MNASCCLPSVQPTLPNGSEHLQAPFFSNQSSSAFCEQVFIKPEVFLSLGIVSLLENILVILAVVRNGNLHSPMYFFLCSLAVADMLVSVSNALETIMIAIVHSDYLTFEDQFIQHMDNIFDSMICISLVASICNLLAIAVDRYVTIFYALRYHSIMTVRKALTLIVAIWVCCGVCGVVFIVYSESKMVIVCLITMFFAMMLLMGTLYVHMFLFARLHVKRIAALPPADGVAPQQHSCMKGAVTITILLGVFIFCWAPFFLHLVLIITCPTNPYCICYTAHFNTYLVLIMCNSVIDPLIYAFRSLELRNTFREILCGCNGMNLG
Method: Measurement of In Vitro Agonist Potency (EC50) of Compounds Against Melanocortin Receptors Type 1 and 3 (MC1 and MC3).
Activation of melanocortin (MC) receptors by agonists results in activation of intracellular adenylate cyclase enzymes that synthesise the second messenger signalling molecule, adenosine 3′,5′-cyclic monophosphate (cAMP). Changes in cAMP levels following treatment of recombinant MC1 and MC3 cell lines with test compound were measured and an MC1 and MC3 potency estimate (EC50) calculated as follows: […]
Human embryonic kidney (HEK) or Chinese hamster ovary cell lines stably transfected with full length cDNA encoding human MC1 or MC3 receptors, respectively, were established using standard molecular biology methods. Test compounds were dissolved in dimethyl sulfoxide (DMSO) at 4 mM. 11 point half log unit increment dilution series of test compound, typically starting at 50 uM were prepared in a buffer comprised of phosphate buffered saline (PBS), 2.5% DMSO and 0.05% pluronic F-127 surfactant. Freshly cultured cells at 80-90% confluence were harvested and re-suspended in Dulbecco's Modified Eagle's Medium (DMEM). Cells (10,000 for MC3, 20,000 for MC1) were added to the test compound dilution series in a 384 well assay plate and incubated for 1 hour at 37° C. The relative cAMP concentration in each well was then measured using a β-galactosidase enzyme fragment complementation method purchased in kit form as the Discoverx cAMP II kit from GE Healthcare/Amersham Biosciences UK. In the case of MC1,3-Isobutyl-1-methylxanthine (IBMX) at a concentration of 750 μM was included in DMEM as the cells were re-suspended for assay. […] Sigmoidal curves were fitted to plots of log10 inhibitor concentration vs percent effect using a custom made software application called SIGHTS and EC50 estimates determined by the software as the concentration of test compound giving an effect half way between the bottom and top assymptopes of the sigmoidal dose response curve. Each experiment included an EC50 determination for alpha melanocyte stimulating hormone, which was used as a standard to track assay consistency and allow fair comparison between EC50 estimates obtained in different experiments.

microsomal CLint at 1 μM [1] [µL/min/mg] | EC50 [2] [nM] | EC50 [3] [nM] | SMILES
411 | 39.3 | 520 | C[C@@H]1CN(C(=O)[C@@H]2CN(c3cccnn3)C[C@H]2c2ccc(Cl)cn2)C[C@H](C)[C@@]1(O)c1ccccn1 [Example 9, (3R,4R,5S)-1-{[(3S,4S)-4-(5-chloropyridin-2-yl)-1-pyridazin-3-ylpyrrolidin-3-yl]carbonyl}-3,5-dimethyl-4-pyridin-2-ylpiperidin-4-ol]
42 | 11.9 | 493 | C[C@@H]1CN(C(=O)[C@@H]2CN(c3ccc(=O)n(C)n3)C[C@H]2c2ccc(Cl)cn2)C[C@H](C)[C@@]1(O)c1ccc(Cl)cn1 [Example 10]
< 8.5 | 34.3 | 323 | COc1ccc(C2CN(c3ccc(C#N)nn3)CC2C(=O)N2CC(C)C(O)(c3ccc(F)cc3)C(C)C2)cn1 (stereo not drawn) [Example 16]
> 510 | 1.59 | 54.9 | C[C@@H]1CN(C(=O)[C@@H]2CN(c3ccc(=O)n(C)n3)C[C@H]2c2ccc(Cl)cn2)C[C@H](C)[C@@]1(O)C1CCCCC1 [Example 17]
68 | 55.5 | > 8520 | C[C@@H]1CN(C(=O)[C@@H]2CN(c3ccc(=O)n(C)n3)C[C@H]2c2ccc(Cl)cn2)C[C@H](C)[C@@]1(O)C1CC1 [Example 18]
21 | 6.5 | 425 | CC1CN(C(=O)C2CN(c3ccc(=O)n(C)n3)CC2c2ccc(Cl)cn2)CC(C)C1(O)c1ccc(F)c(F)c1 (stereo not drawn) [Example 19]
51.5 | 16.4 | 1120 | COc1ccc(C2(O)C(C)CN(C(=O)C3CN(c4ccc(=O)n(C)n4)CC3c3ccc(Cl)cn3)CC2C)cc1 (stereo not drawn) [Example 20]
58.5 | 2.81 | 283 | CC1CN(C(=O)C2CN(c3ccc(=O)n(C)n3)CC2c2ccc(Cl)cn2)CC(C)C1(O)c1ccccc1 (stereo not drawn) [Example 21]
96 | 19.8 | 1050 | C[C@@H]1CN(C(=O)[C@@H]2CN(c3ccc(=O)n(C)n3)C[C@H]2c2ccc(Cl)cn2)C[C@H](C)[C@@]1(O)c1ccccn1 [Example 22]
< 8.5 | 4.75 | 185 | CC1CN(C(=O)C2CN(c3ccc(=O)n(C)n3)CC2c2ccc(Cl)cn2)CC(C)C1(O)c1ccc(Cl)cc1 (stereo not drawn) [Example 23]
> 510 | 59.3 | 2510 | CC1CN(C(=O)C2CN(c3cncc(F)c3)CC2c2ccc(Cl)cn2)CC(C)C1(O)C1CC1 (stereo not drawn) [Example 24]
172 | 12.4 | 189 | CC1CN(C(=O)C2CN(c3cncc(F)c3)CC2c2ccc(Cl)cn2)CC(C)C1(O)c1ccc(F)cc1 (stereo not drawn) [Example 25]
> 510 | 22.5 | 4210 | COc1ccc(N2CC(C(=O)N3CC(C)C(O)(C4CC4)C(C)C3)C(c3ccc(Cl)cn3)C2)nn1 (stereo not drawn) [Example 26]
31 | 4.54 | 390 | CC1CN(C(=O)C2CN(c3ccc(=O)[nH]n3)CC2c2ccc(Cl)cn2)CC(C)C1(O)c1ccccc1 (stereo not drawn) [Example 27]
51 | 24.4 | 938 | C[C@@H]1CN(C(=O)[C@@H]2CN(c3ccc(=O)[nH]n3)C[C@H]2c2ccc(Cl)cn2)C[C@H](C)[C@@]1(O)c1ccccn1 [Example 28]
69.5 | 5.77 | 61.5 | CC1CN(C(=O)C2CN(c3ccc(C#N)nn3)CC2c2ccc(Cl)cn2)CC(C)C1(O)c1ccccn1 (stereo not drawn) [Example 30]
292 | 22.9 | 410 | C[C@@H]1CN(C(=O)[C@@H]2CN(c3ccc(Cl)nn3)C[C@H]2c2ccc(Cl)cn2)C[C@H](C)[C@@]1(O)c1ccccn1 [Example 31]
< 8.5 | 8.78 | 76.6 | C[C@@H]1CN(C(=O)[C@@H]2CN(c3ccc(C#N)nn3)C[C@H]2c2ccc(F)cn2)C[C@H](C)[C@@]1(O)c1ccc(Cl)cc1 [Example 32]
72 | 13.4 | 193 | CC1CN(C(=O)C2CN(c3ccc(C#N)nn3)CC2c2ccc(F)cn2)CC(C)C1(O)c1ccccc1 (stereo not drawn) [Example 33]
92 | 62.2 | 878 | C[C@@H]1CN(C(=O)[C@@H]2CN(c3ccc(Cl)nn3)C[C@H]2c2ccc(F)cn2)C[C@H](C)[C@@]1(O)c1ccccc1 [Example 35]
< 8.5 | 69.8 | 580 | CC1CN(C(=O)C2CN(c3ccc(=O)n(C)n3)CC2c2ccc(F)cn2)CC(C)C1(O)c1ccc(F)cc1 (stereo not drawn) [Example 40]
30 | 655 | > 33300 | COc1ccc([C@@H]2CN(c3ccc(=O)[nH]n3)C[C@H]2C(=O)N2C[C@@H](C)[C@](O)(c3ccc(Cl)cn3)[C@@H](C)C2)nc1 [Example 41]
< 8.5 | 44.4 | 66.1 | CC1CN(C(=O)C2CN(c3ccc(C#N)cn3)CC2c2ccc(C#N)cn2)CC(C)C1(O)c1ccc(F)cc1 (stereo not drawn) [Example 45]
< 8.5 | 15 | 50.8 | C[C@@H]1CN(C(=O)[C@@H]2CN(c3ccc(C#N)nn3)C[C@H]2c2ccc(C#N)cn2)C[C@H](C)[C@@]1(O)c1ccc(F)cc1 [Example 46]
